The assay addresses T1, hGPR120 (Homo sapiens, UniProt Q5NUL3).
T1 construct: expressed in transfected cells; host or cells: CHO-K1
T1 sequence (Q5NUL3 1-361): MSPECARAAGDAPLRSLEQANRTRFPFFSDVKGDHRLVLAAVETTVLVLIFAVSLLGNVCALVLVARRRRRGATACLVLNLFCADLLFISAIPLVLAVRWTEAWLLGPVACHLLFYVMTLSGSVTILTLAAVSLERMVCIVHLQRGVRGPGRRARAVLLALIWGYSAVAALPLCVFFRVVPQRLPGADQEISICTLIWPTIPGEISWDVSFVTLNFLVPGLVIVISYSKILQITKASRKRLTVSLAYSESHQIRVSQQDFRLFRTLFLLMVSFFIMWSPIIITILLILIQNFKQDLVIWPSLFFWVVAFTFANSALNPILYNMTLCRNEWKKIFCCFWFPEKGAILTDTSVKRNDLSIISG
Nature of the assay: Measurement of Activity of GPR120 Agonist (Cell-Based Assay), Calcium 5 dye fluorescence. As to conditions: CHO-K1 cells expressing Ga16 and hGPR120. Put shortly:
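After an 18 h incubation at 37 °C, the transfected CHO-K1 cells (Gα16, hGPR120) received Calcium 5 dye for 1 h; compound dilutions in 0.5% DMSO were then injected and emission at 525 nm recorded, with values given as % of the vehicle response.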

`CC(C)Sc1cccc(-c2ccc3nc(CCC(=O)O)ccc3c2)n1` [Example 2, 3-[6-(6-isopropylsulfanyl-pyridin-2-yl)-quinolin-2-yl]-propionic acid]: the EC50 lay within 200 to 2000 nM.
In the case of `O=C(O)CCc1ccc2cc(-c3cccc(OC4CCC4)n3)ccc2c1` [Example 148, 3-[6-(6-cyclobutoxy-pyridin-2-yl)-naphthalen-2-yl]-propanoic acid], the EC50 was 200 to 2000 nM.
For `O=C(O)CC1CN(c2c(F)cc(-c3cccc(OCC4CC4)n3)cc2F)C1` [Example 322, 2-[1-[4-[6-(cyclopropylmethoxy)-2-pyridyl]-2,6-difluoro-phenyl]azetidin-3-yl]acetic acid], the EC50 is less than 200 nM.
The result for `CC(C)Nc1cncc(-c2cc(F)c(N3CCC(CC(=O)O)C3)c(F)c2)n1` (stereo not drawn) [Example 505, 2-{1-[2,6-difluoro-4-(6-isopropylamino-pyrazin-2-yl)phenyl]pyrrolidin-3-yl}acetic acid] reads 200 to 2000 nM; that for `O=C(O)CCCSc1c(F)cc(-c2cccc3c2OC2(CCCC2)C3)cc1F` [Example 262, 4-(2,6-difluoro-4-spiro[3H-benzofuran-2,1′-cyclopentan]-7-yl-phenylsulfanyl)-butyric acid], less than 200 nM.
With `O=C(O)CC1CCN(c2c(F)cc(-c3cccnc3OC3CCOC3)cc2F)CC1` (stereo not drawn) [Example 103, 2-[1-[2,6-difluoro-4-(2-tetrahydrofuran-3-yloxy-3-pyridyl)phenyl]-4-piperidyl]acetic acid], the EC50 was in the range of 200 to 2000 nM.
The value for `CN(CCCC(=O)O)c1c(F)cc(-c2cccc(N3CCCC3)c2)cc1F` [Example 201, 4-[(3,5-difluoro-3′-pyrrolidin-1-yl-biphenyl-4-yl)-methyl-amino]-butyric acid] was 200 to 2000 nM; that for `CC(C)COc1nc(-c2cc(F)c(N3CCC(CC(=O)O)C3)c(F)c2)ncc1F` (stereo not drawn) [Example 594, {1-[2,6-difluoro-4-(5-fluoro-4-isobutoxy-pyrimidin-2-yl)-phenyl]-pyrrolidin-3-yl}-acetic acid] was 200 to 2000 nM; that for `CC(C)Sc1cccc(-c2ccc3c(c2)CCC(CCC(=O)O)S3)n1` (stereo not drawn) [Example 286, 3-[6-(6-isopropylsulfanyl-pyridin-2-yl)-thiochroman-2-yl]-propionic acid] was less than 200 nM.
The result for `O=C(O)COc1ccc2cc(-c3cccc(OC4CCCC4)n3)ccc2c1` [Example 3, [6-(6-cyclopentyloxy-pyridin-2-yl)-naphthalen-2-yloxy]-acetic acid] reads 200 to 2000 nM; that for `Oc1cc(COc2c(F)cc(-c3cccc(OCC4CC4)n3)cc2F)on1` [Example 72, 5-[[4-[6-(cyclopropylmethoxy)-2-pyridyl]-2,6-difluoro-phenoxy]methyl]isoxazol-3-ol], less than 200 nM; that for `CCCSc1cccc(-c2cc(F)c(C(C)CCCC(=O)O)c(F)c2)n1` (stereo not drawn) [Example 55, 5-[2,6-difluoro-4-(6-propylsulfanyl-2-pyridyl)phenyl]hexanoic acid], less than 200 nM.
The result for `O=C(O)CCCOc1ccc(-c2cccnc2OCC2CC2)cc1F` [Example 240, 4-[4-(2-cyclopropylmethoxy-pyridin-3-yl)-2-fluoro-phenoxy]-butyric acid] reads 200 to 2000 nM; that for `CCCSc1ncccc1-c1ccc(CCCc2noc(=S)[nH]2)cc1` [Example 64, 3-[3-[4-(2-propylsulfanyl-3-pyridyl)phenyl]propyl]-4H-1,2,4-oxadiazol-5-thione], 2000 to 20000 nM.
As to `CC(C)(CCCC(=O)O)c1ccc(-c2cccnc2OC2CCCC2)cc1F` [Example 161, 5-[4-(2-cyclopentyloxy-pyridin-3-yl)-2-fluoro-phenyl]-5-methyl-hexanoic acid], the EC50 lay in the range of 200 to 2000 nM.
The result for `CC(C)CNc1ccnc(-c2cc(F)c(N3CCC(CC(=O)O)CC3)c(F)c2)n1` [Example 360, 2-[1-[2,6-difluoro-4-[4-(isobutylamino)pyrimidin-2-yl]phenyl]-4-piperidyl]acetic acid] reads 200 to 2000 nM.
The result for `CCOc1cncc(-c2cc(F)c(OCCCC(=O)O)c(Cl)c2)n1` [Example 437, 4-[2-chloro-4-(6-ethoxy-pyrazin-2-yl)-6-fluoro-phenoxy]-butyric acid] reads less than 200 nM; that for `CC(C)Sc1ncccc1-c1cc(F)c(N2CC[C@@H](CC(=O)O)C2)c(F)c1` [Example 136, 2-[(3S)-1-[2,6-difluoro-4-(2-isopropylsulfanyl-3-pyridyl)phenyl]pyrrolidin-3-yl]acetic acid], less than 200 nM; that for `O=C(O)CCCOc1c(F)cc(-c2cccc(OC3CCC3)c2)cc1Cl` [Example 405, 4-(5-chloro-3′-cyclobutoxy-3-fluoro-biphenyl-4-yloxy)-butyric acid], less than 200 nM.
Take `O=C(O)CCC1CCc2cc(-c3cccnc3SC3CCC3)ccc2O1` (stereo not drawn) [Example 272, 3-[6-(2-cyclobutylsulfanyl-pyridin-3-yl)-chroman-2-yl]-propionic acid]: the EC50 is less than 200 nM.
For the compound `O=C(O)CCCOc1c(F)cc(-c2sccc2COCC2CC2)cc1F` [Example 574, 4-[4-(3-cyclopropylmethoxymethyl-thiophen-2-yl)-2,6-difluoro-phenoxy]-butanoic acid], the EC50 is less than 200 nM.
The value for `Cc1cc(OC(C)C)nc(-c2cc(F)c(N3CCC(CC(=O)O)C3)c(F)c2)n1` (stereo not drawn) [Example 587, {1-[2,6-difluoro-4-(4-isopropoxy-6-methyl-pyrimidin-2-yl)-phenyl]-pyrrolidin-3-yl}-acetic acid] was 200 to 2000 nM.
The value for `O=C(O)CCCOc1ccc(-c2cccc(OCC3CCC3)n2)cc1F` [Example 539, 4-[4-(6-cyclobutylmethoxy-pyridin-2-yl)-2-fluoro-phenoxy]-butyric acid] was 200 to 2000 nM.
The result for `CCCOc1cncc(-c2cc(F)c(N3CCC(CC(=O)O)CC3)c(F)c2)n1` [Example 341, 2-[1-[2,6-difluoro-4-(6-propoxypyrazin-2-yl)phenyl]-4-piperidyl]acetic acid] reads less than 200 nM; that for `COc1ccc2c(ccn2-c2cc(F)c(OCCCC(=O)O)c(F)c2)c1` [Example 468, 4-[2,6-difluoro-4-(5-methoxyindol-1-yl)phenoxy]butanoic acid], less than 200 nM; that for `COc1ccc(Oc2ccnc(-c3cc(F)c(N4CCC(CC(=O)O)CC4)c(F)c3)n2)cc1` [Example 514, 2-[1-[4-[4-(4-methoxyphenoxy)pyrimidin-2-yl]-2,6-difluoro-phenyl]-4-piperidyl]acetic acid], 200 to 2000 nM.
As for `CC(C)(C)Oc1cccc(-c2cc(F)c(N3CCC(CC(=O)O)CC3)c(F)c2)n1` [Example 309, 2-[1-[4-(6-tert-butoxy-2-pyridyl)-2,6-difluoro-phenyl]-4-piperidyl]acetic acid], the EC50 lay in the range of 200 to 2000 nM.
The value for `CNc1ccccc1-c1cc(F)c(N(C)CCCC(=O)O)c(F)c1` [Example 222, 4-[(3,5-difluoro-2′-methylamino-biphenyl-4-yl)-methyl-amino]-butyric acid] was 200 to 2000 nM; that for `CN(CCCC(=O)O)c1c(F)cc(-c2cccc(SC3CCC3)n2)cc1F` [Example 202, 4-{[4-(6-cyclobutylsulfanyl-pyridin-2-yl)-2,6-difluoro-phenyl]-methyl-amino}-butyric acid] was less than 200 nM.
The result for `O=C(O)COCCc1c(F)cc(-c2cccnc2SC2CCC2)cc1F` [Example 38, {2-[4-(2-cyclobutylsulfanyl-3-pyridyl)-2,6-difluoro-phenyl]ethoxy}acetic acid] reads 200 to 2000 nM.

As usually defined, the EC50 is the concentration that produces a half-maximal response.
